Test results from paper PMC7175277, “Hydroxylamine Analogue of Agmatine: Magic Bullet for Arginine Decarboxylase” (Biomolecules, 2020).
Entries after “also recorded” stand apart in the source; their conditions may differ.

Tests used:
[1] = tested on: Acremonium chrysogenum high-cephalosporin-yielding (HY) RNCM F-4081D; test: Fungal growth inhibition (drop-dilution, CD agar), HY strain; format: cell-based
Description: (§1) Two strains of Acremonium chrysogenum were used in this study: the wild-type (Brotzu) isolate ATCC 11550 (WT) and high-cephalosporin-yielding RNCM F-4081D (HY), derived from the WT [37]. The cultivation conditions were the same as previously described. The filamentous fungi were cultivated on agarized Czapek-Dox (CD) medium (30 g/L sucrose, 2 g/L NaNO3, 1 g/L K2HPO4, 0.5 g/L MgSO4×7 H2O, 0.5 g/L KCl, 0.01 g/L FeSO4×7 H2O, 20 g/L agar, pH 7.0–7.4). To determine the toxic effect of AO-Agm, APA, DFMA and DFMO on the growth of fungal cells the drop-dilution method was used with some modifications as described earlier. Cells were collected from agar slants and diluted with 0.9% NaCl solution up to OD600 = 0.5 (basic concentration), followed by serial tenfold dilutions with the same solution. […] The inoculated Petri dishes were incubated for 21 days at 26 °C. The inhibitory effects of the compounds were measured every three days after inoculation and evaluated by measuring the ratio of colony growth on agarized CD medium supplemented with AO-Agm, APA, DFMA, or DFMO to the growth in the control (agarized CD medium without any additions). The formula: growth inhibition % = [(Dc − Dt)/Dc] × 100, where Dc indicates the colony diameter in control set, and Dt indicates the colony diameter in the treatment set that was used to determine the percent of fungal growth inhibition. The data recorded were measured in triplicate and repeated at least twice.

mammalian ODC = tested on: mammalian ODC; design: method as in PMID 3841480, PMID 1573631; settings: cited from earlier work
E. coli ADC [2] = target: T1, E. coli ADC (Escherichia coli, UniProt P21170); test: E. coli ADC activity assay (HPLC of agmatine); format: biochemical; settings: 0.1 mM PLP; 15 min preincubation; 0.15 mM L-Arg
T1 construct: The kinetic parameters determined for the partially purified biosynthetic ADC from E. coli; endogenous in cells; host or cells: E. coli DH5α (39-53% ammonium sulphate fraction of the lysate, desalted)
T1 sequence (P21170 1-658): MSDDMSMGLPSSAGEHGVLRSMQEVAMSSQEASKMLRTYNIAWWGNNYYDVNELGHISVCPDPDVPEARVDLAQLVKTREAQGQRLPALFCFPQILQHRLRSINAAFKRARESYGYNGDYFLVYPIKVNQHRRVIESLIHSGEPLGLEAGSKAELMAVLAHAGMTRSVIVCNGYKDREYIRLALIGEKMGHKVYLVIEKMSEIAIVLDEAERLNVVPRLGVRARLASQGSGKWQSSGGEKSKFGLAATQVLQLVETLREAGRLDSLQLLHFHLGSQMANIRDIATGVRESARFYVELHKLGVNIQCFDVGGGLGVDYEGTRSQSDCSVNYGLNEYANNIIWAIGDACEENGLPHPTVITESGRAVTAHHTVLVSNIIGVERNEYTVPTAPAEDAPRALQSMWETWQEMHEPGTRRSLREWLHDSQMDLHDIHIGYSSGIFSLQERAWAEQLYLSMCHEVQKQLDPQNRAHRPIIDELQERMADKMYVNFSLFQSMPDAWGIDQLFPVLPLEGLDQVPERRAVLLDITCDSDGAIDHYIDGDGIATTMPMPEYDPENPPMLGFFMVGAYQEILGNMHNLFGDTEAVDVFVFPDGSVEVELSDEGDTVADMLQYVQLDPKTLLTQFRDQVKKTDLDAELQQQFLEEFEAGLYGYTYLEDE
Method: The purification was performed using a modified procedure of earlier publication. E. coli strain DH5α was grown in Luria-Bertani broth at +37 °C with shaking (200 rpm) overnight. The cells were collected by centrifugation and the pellet was homogenized with Potter-Elvehjem in 10 volumes (w/v) of ice-cold 50 mM Tris-HCl pH 7.4, 1 mM DTT. The cell debris was removed by centrifugation at 12,000 g for 30 min at +4 °C. Solid (NH4)2SO4 was added to the supernatant, and the pellet precipitating between 39% and 53% saturation was separated. The precipitate was resuspended in ice-cold buffer containing 50 mM Tris-HCl pH 7.4 and 1 mM DTT and desalted by passage through Sephadex G-25 column (NAP-10 column, GE Healthcare). The protein concentration was measured with Bio-Rad protein reagent, and the partially purified enzyme preparation was mixed with 20% glycerol and aliquoted for storage at −80 °C.
[…] The ODC reaction mixture contained 50 mM Tris-HCl pH 7.8, 1 mM EDTA, 2.4 mM DTT, 0.1 mM PLP and 20 μg of partially purified enzyme preparation. The mixtures were either preincubated or not preincubated for 15 min at +40 °C in the presence of the inhibitor, after which the reaction was started by the addition of 18 μL of 10× substrate (L-Arg for ADC and L-Orn for ODC). After incubation for 30 min (ADC) or 20 min (ODC) at +40 °C, 20 μL of 50% sulphosalicylic acid containing 50 μM diaminoheptane (internal standard) was added and the samples were analyzed for the content of agmatine (ADC) and Put (ODC) with HPLC as described previously. The kinetic parameters and IC50 values were determined with the aid of GraphPad Prism version 5.03 using nonlinear regression analysis.

[3] = design: method as in PMID 7896733; settings: 48 h; absence of amine oxidase inhibitor; cited from earlier work
[4] = tested on: Acremonium chrysogenum wild-type (WT) ATCC 11550; test: Fungal growth inhibition (drop-dilution, CD agar), WT strain; format: cell-based
Description: as §1

E. coli ADC [5] = target: T1, E. coli ADC; design: method as in PMID 4571773; settings: PLP binding to the apo-enzyme; cited from earlier work
mouse kidney ODC = target: T2, mouse kidney ODC (Mus musculus, UniProt P00860); design: method as in PMID 6810923; settings: reversibly bound PLP; cited from earlier work
T2 construct: Aliquots of the supernatant were mixed with 1–5000 μM of AO-Agm and the ODC assay was carried out; from tissue; host or cells: C57Bl/6J male mouse kidney, 12,000 g supernatant of the homogenate
T2 sequence (P00860 1-461): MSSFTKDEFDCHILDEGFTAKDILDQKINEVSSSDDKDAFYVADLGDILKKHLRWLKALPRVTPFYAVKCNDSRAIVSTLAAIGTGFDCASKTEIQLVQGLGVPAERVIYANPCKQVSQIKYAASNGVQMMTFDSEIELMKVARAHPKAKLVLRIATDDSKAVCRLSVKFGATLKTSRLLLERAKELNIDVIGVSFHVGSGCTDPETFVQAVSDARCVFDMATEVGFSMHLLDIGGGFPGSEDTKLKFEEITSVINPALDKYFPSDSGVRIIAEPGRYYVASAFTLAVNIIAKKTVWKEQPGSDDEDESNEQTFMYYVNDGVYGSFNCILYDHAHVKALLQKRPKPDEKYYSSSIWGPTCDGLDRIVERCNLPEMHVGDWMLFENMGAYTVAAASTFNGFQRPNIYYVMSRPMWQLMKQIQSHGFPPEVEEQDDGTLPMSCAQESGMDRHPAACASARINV

SMILES | Growth inhibition compared with 5 mM ([1]; HY strain, 1 mM inhibitor) | inhibition at 5000 µM ([1]; Hapsidospora chrysogena, 336 h, read-out: Growth inhibition) | Concentrations inhibiting mammalian ODC (mammalian ODC) | ADC inhibition relative to AO-Agm (weaker) (E. coli ADC [2]) | IC50 (E. coli ADC [2]) | Level remaining in the cell culture medium, of its initial concentration [3] | Growth of WT strain ([4]; 5 mM inhibitor) | Effect of 0.5 mM Spd on the growth arrest caused by the inhibitor ([4]; 5 mM inhibitor + 0.5 mM Spd) | inhibition at 1000 µM ([4]; Hapsidospora chrysogena, ATCC11550, 1 mM inhibitor, 17th day after inoculation) | inhibition at 5000 µM ([4]; Hapsidospora chrysogena, ATCC11550, 336 h, 5 mM inhibitor, 14 days after inoculation on CD medium) | Km (E. coli ADC [5]) | Km (mouse kidney ODC)
NCCCON [APA, 1-aminooxy-3-aminopropane] | much less effective | 44% | nanomolar inhibitor; also recorded: nanomolar concentrations | 1000 times | 33 ± 2 µM | about 10% | completely inhibited | reversed the growth arrest | ~95% | 100% | – | –
Cc1ncc(COP(=O)(O)O)c(C=O)c1O [PLP, pyridoxal-5’-phosphate] | – | – | – | – | – | – | – | – | – | – | 600 nM | 300 nM
